Assay results reported in patent US20230123334A1, “AMINO LIPID COMPOUND, PREPARATION METHOD THEREFOR, AND APPLICATION THEREOF” (SHENZHEN SHENXIN BIOTECHNOLOGY CO., LTD., priority 2020, published 2023).

tested on: HEK293 cells; test: Preliminary screening as DNA vectors, GFP transfection of HEK293 cells; assay type: cell-based; settings: amino lipid/DOPE liposome with 75 ng plasmid DNA (psin-EGFP-IRES-Puro); number of GFP-expressing cells divided by total nuclei (Hoechst)
Method in brief: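 Lipid + DOPE liposomes (NaOAc, pH 5.6) complexed w/ 75 ng psin-EGFP-IRES-Puro, 30 min RT; added to 3-5×10^4 HEK293/well, 37° C. Hoechst 0.2 μg/mL at 20-24 h, imaged after further 20-24 h. Efficiency = GFP+ cells / total nuclei.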

Row | Structure (SMILES) | Absolute DNA transfection efficiency in HEK293 cells [%]
1 | CCCCCCCCCCCCCCCCSc1nc(NCCCN2CCOCC2)nc(N(CCCCCCCCCCCC)CCCCCCCCCCCC)n1 [S16^2N12 D8] | 0.0
2 | CCCCCCCCCCCCCCCCSc1nc(NCCCN2CCN(C)CC2)nc(N(CCCCCCCCCCCC)CCCCCCCCCCCC)n1 [S16^2N12 D9] | 0.6
3 | CCCCCCCCCCCCCCCCSc1nc(NCC2CCN(C)CC2)nc(N(CCCCCCCCCCCC)CCCCCCCCCCCC)n1 [S16^2N12 D10] | 0.3
4 | CCCCCCCCCCCCCCCCCCSc1nc(NCCCCCC)nc(NCCN(C)C)n1 [S18N6 D1] | 6.9
5 | CCCCCCCCCCCCCCCCCCSc1nc(NCCCCCC)nc(NCCN2CCOCC2)n1 [S18N6 D2] | 5.9
6 | CCCCCCCCCCCCCCCCCCSc1nc(NCCCCCC)nc(NCCN2CCCC2)n1 [S18N6 D3] | 22.1
7 | CCCCCCCCCCCCCCCCCCSc1nc(NCCCCCC)nc(NCCN2CCCCC2)n1 [S18N6 D4] | 7.2
8 | CCCCCCCCCCCCCCCCCCSc1nc(NCCCCCC)nc(NCCN2CCN(C)CC2)n1 [S18N6 D5] | 18.1
9 | CCCCCCCCCCCCCCCCCCSc1nc(NCCCCCC)nc(NCCCN(C)C)n1 [S18N6 D6] | 14.5
10 | CCCCCCCCCCCCCCCCCCSc1nc(NCCCCCC)nc(NCCN(CC)CC)n1 [S18N6 D7] | 10.4
11 | CCCCCCCCCCCCCCCCCCSc1nc(NCCCCCC)nc(NCCCN2CCOCC2)n1 [S18N6 D8] | 5.5
12 | CCCCCCCCCCCCCCCCCCSc1nc(NCCCCCC)nc(NCCCN2CCN(C)CC2)n1 [S18N6 D9] | 11.0
13 | CCCCCCCCCCCCCCCCCCSc1nc(NCCCCCC)nc(NCC2CCN(C)CC2)n1 [S18N6 D10] | 8.9
14 | CCCCCCCCCCCCCCCCCCSc1nc(NCCCCCCC)nc(NCCN(C)C)n1 [S18N7 D1] | 6.8
15 | CCCCCCCCCCCCCCCCCCSc1nc(NCCCCCCC)nc(NCCN2CCOCC2)n1 [S18N7 D2] | 3.2
16 | CCCCCCCCCCCCCCCCCCSc1nc(NCCCCCCC)nc(NCCN2CCCC2)n1 [S18N7 D3] | 15.6
17 | CCCCCCCCCCCCCCCCCCSc1nc(NCCCCCCC)nc(NCCN2CCCCC2)n1 [S18N7 D4] | 3.5
18 | CCCCCCCCCCCCCCCCCCSc1nc(NCCCCCCC)nc(NCCN2CCN(C)CC2)n1 [S18N7 D5] | 28.2
19 | CCCCCCCCCCCCCCCCCCSc1nc(NCCCCCCC)nc(NCCCN(C)C)n1 [S18N7 D6] | 20.7
20 | CCCCCCCCCCCCCCCCCCSc1nc(NCCCCCCC)nc(NCCN(CC)CC)n1 [S18N7 D7] | 4.5
21 | CCCCCCCCCCCCCCCCCCSc1nc(NCCCCCCC)nc(NCCCN2CCOCC2)n1 [S18N7 D8] | 3.9
22 | CCCCCCCCCCCCCCCCCCSc1nc(NCCCCCCC)nc(NCCCN2CCN(C)CC2)n1 [S18N7 D9] | 9.3
23 | CCCCCCCCCCCCCCCCCCSc1nc(NCCCCCCC)nc(NCC2CCN(C)CC2)n1 [S18N7 D10] | 13.5
24 | CCCCCCCCCCCCCCCCCCSc1nc(NCCCCCCCC)nc(NCCN(C)C)n1 [S18N8 D1] | 4.1
25 | CCCCCCCCCCCCCCCCCCSc1nc(NCCCCCCCC)nc(NCCN2CCOCC2)n1 [S18N8 D2] | 3.8
26 | CCCCCCCCCCCCCCCCCCSc1nc(NCCCCCCCC)nc(NCCN2CCCC2)n1 [S18N8 D3] | 9.6
27 | CCCCCCCCCCCCCCCCCCSc1nc(NCCCCCCCC)nc(NCCN2CCCCC2)n1 [S18N8 D4] | 3.9
28 | CCCCCCCCCCCCCCCCCCSc1nc(NCCCCCCCC)nc(NCCN2CCN(C)CC2)n1 [S18N8 D5] | 13.6
